Measurements as given in the supplement of paper PMC10307832.

Columns and labels:
Experiment in all cases: relative viability (nuclei count vs DMSO), 5 days (fraction); higher = more cells survive
XMD14-99 + Palbociclib = compound: CN1CCN(CC1)C2=CC(=C(C=C2)NC3=NC(=C(S3)C(=O)C4=C(C=CC=C4Cl)Cl)N)OC [XMD14-99] + CC(=O)c1c(C)c2cnc(Nc3ccc(N4CCNCC4)cn3)nc2n(C2CCCC2)c1=O [Palbociclib] (partner 0.5 µM)
In short: (§1)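 Relative viability was taken as the ratio of nuclei in treated wells to nuclei in vehicle wells. Lung cancer cell lines in 1536-well plates received compounds by pin tool one day after seeding, either one drug alone or a fixed anchor-drug dose plus five library-drug doses (not always all listed) in √10 steps. Nuclei were counted on 4× images after 5 days of treatment, and values are medians of duplicate plates.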

XMD14-99 + Navitoclax = compound: CN1CCN(CC1)C2=CC(=C(C=C2)NC3=NC(=C(S3)C(=O)C4=C(C=CC=C4Cl)Cl)N)OC [XMD14-99] + CC1(C)CCC(c2ccc(Cl)cc2)=C(CN2CCN(c3ccc(C(=O)NS(=O)(=O)c4ccc(N[C@H](CCN5CCOCC5)CSc5ccccc5)c(S(=O)(=O)C(F)(F)F)c4)cc3)CC2)C1 [Navitoclax] (partner 0.5 µM)
In short: as §1

AZD1208 + Crizotinib = compound: N[C@@H]1CCCN(c2c(/C=C3\SC(=O)NC3=O)cccc2-c2ccccc2)C1 [AZD1208] + C[C@@H](Oc1cc(-c2cnn(C3CCNCC3)c2)cnc1N)c1c(Cl)ccc(F)c1Cl [Crizotinib] (partner 1 µM)
In short: as §1

AZD1208 + Linsitinib = compound: N[C@@H]1CCCN(c2c(/C=C3\SC(=O)NC3=O)cccc2-c2ccccc2)C1 [AZD1208] + C[C@]1(O)C[C@@H](c2nc(-c3ccc4ccc(-c5ccccc5)nc4c3)c3c(N)nccn32)C1 [Linsitinib] (partner 1 µM)
In short: as §1

Row | Cell Line | relative viability (XMD14-99 + Palbociclib; first compound 0.08 µM) | relative viability (XMD14-99 + Palbociclib; first compound 0.8 µM) | relative viability (XMD14-99 + Palbociclib; first compound 2.53 µM) | relative viability (XMD14-99 + Palbociclib; first compound 8 µM) | relative viability (XMD14-99 + Navitoclax; first compound 0.08 µM) | relative viability (XMD14-99 + Navitoclax; first compound 0.8 µM) | relative viability (XMD14-99 + Navitoclax; first compound 2.53 µM) | relative viability (XMD14-99 + Navitoclax; first compound 8 µM) | relative viability (AZD1208 + Crizotinib; first compound 0.08 µM) | relative viability (AZD1208 + Crizotinib; first compound 0.253 µM) | relative viability (AZD1208 + Crizotinib; first compound 0.8 µM) | relative viability (AZD1208 + Crizotinib; first compound 2.53 µM) | relative viability (AZD1208 + Crizotinib; first compound 8 µM) | relative viability (AZD1208 + Linsitinib; first compound 0.08 µM) | relative viability (AZD1208 + Linsitinib; first compound 0.253 µM) | relative viability (AZD1208 + Linsitinib; first compound 0.8 µM) | relative viability (AZD1208 + Linsitinib; first compound 2.53 µM) | relative viability (AZD1208 + Linsitinib; first compound 8 µM)
1 | NCI-H1792 | 0.64 | 0.697 | 0.631 | 0.598 | 0.747 | 0.638 | 0.561 | 0.41 | 1.03 | 1.08 | 0.858 | 0.956 | 0.907 | 0.474 | 0.648 | 0.446 | 0.439 | 0.467
2 | NCI-H1915 | 0.555 | 0.552 | 0.516 | 0.517 | 0.833 | 0.761 | 0.742 | 0.737 | 0.847 | 0.982 | 0.865 | 0.885 | 0.845 | 1.15 | 1.09 | 1.06 | 1.1 | 1.11
3 | NCI-H1944 | 0.32 | 0.36 | 0.328 | 0.28 | 1.1 | 1.04 | 1.01 | 0.919 | 1.14 | 1.16 | 0.985 | 1.01 | 0.827 | 1.14 | 1.19 | 1.01 | 0.953 | 0.82
4 | NCI-H1975 | 0.597 | 0.614 | 0.618 | 0.448 | 1.05 | 1.07 | 1.14 | 1.08 | 0.925 | 1.03 | 0.991 | 0.933 | 0.915 | 0.991 | 1 | 0.911 | 0.981 | 0.975
5 | NCI-H1993 | 0.7 | 0.682 | 0.533 | 0.625 | 0.978 | 0.922 | 0.796 | 0.694 | – | 0.678 | 0.759 | 0.735 | 0.728 | – | 0.722 | 0.731 | 0.739 | 0.654
6 | NCI-H2009 | 0.358 | 0.319 | 0.26 | 0.236 | 1.15 | 1.1 | 1.03 | 0.999 | 1.07 | 1.14 | 0.972 | 1.06 | 0.979 | 1.22 | 1.13 | 1.18 | 1.14 | 1.12
7 | NCI-H2023 | 0.342 | 0.409 | 0.374 | 0.264 | 0.985 | 0.959 | 0.953 | 0.849 | 0.618 | 0.514 | 0.563 | 0.6 | 0.446 | 0.651 | 0.56 | 0.576 | 0.633 | 0.568
8 | NCI-H2085 | 0.453 | 0.447 | 0.462 | 0.41 | 1.11 | 1.1 | 1.1 | 0.823 | 0.703 | 0.906 | 0.951 | 0.865 | 0.882 | 0.913 | 1.04 | 0.892 | 0.939 | 0.946
9 | NCI-H2087 | 0.198 | 0.279 | 0.236 | 0.246 | 0.964 | 0.897 | 0.632 | 0.463 | 1.06 | 1.13 | 0.812 | 0.993 | 0.979 | 0.87 | 0.941 | 0.934 | 1 | 0.787
10 | NCI-H2126 | 0.326 | 0.337 | 0.37 | 0.362 | 0.844 | 0.797 | 0.879 | 0.793 | 0.993 | 1.04 | 0.991 | 1.01 | 0.974 | 0.678 | 0.647 | 0.65 | 0.633 | 0.623
11 | NCI-H2228 | 0.749 | 0.56 | 0.774 | 0.278 | 1.05 | 0.933 | 0.918 | 0.364 | 0.327 | 0.501 | 0.399 | – | 0.427 | 0.493 | 0.596 | 0.546 | – | 0.356
12 | NCI-H2347 | 0.439 | 0.43 | 0.4 | 0.416 | 0.736 | 0.825 | 0.699 | 0.488 | 0.626 | 0.626 | 0.582 | 0.648 | 0.588 | 0.936 | 0.94 | 0.91 | 0.942 | 0.909
13 | NCI-H2405 | 0.512 | 0.578 | 0.557 | 0.503 | 0.825 | 1.05 | 0.877 | 0.436 | 0.831 | 0.86 | 0.782 | 0.81 | 0.838 | 0.8 | 0.789 | 0.737 | 0.883 | 0.853
14 | NCI-H3122 | 0.197 | 0.167 | 0.213 | 0.147 | 0.989 | 0.945 | 0.902 | 0.724 | 0.264 | 0.246 | 0.241 | 0.254 | 0.285 | 1.09 | 1.03 | 1.03 | 1.02 | 1.08
15 | PC-3 [JPC-3] | 0.574 | 0.501 | 0.59 | 0.538 | 0.794 | 0.756 | 0.768 | 0.667 | 1.01 | 0.996 | 1.04 | 1.05 | 0.982 | 1.05 | 1.01 | 1.02 | 1.06 | 1
16 | PC-14 | 0.567 | 0.527 | 0.5 | 0.24 | 0.983 | 0.902 | 0.943 | 0.726 | 0.925 | 1.02 | 0.991 | 0.923 | 0.906 | 0.942 | 1.12 | 0.977 | 1 | 0.914
17 | RERF-LC-KJ | 1.01 | 1.04 | 0.952 | 0.9 | 1.01 | 0.829 | 0.926 | 0.607 | 0.868 | 0.863 | 0.835 | 0.791 | 0.792 | 0.892 | 0.883 | 0.815 | 0.794 | 0.702
18 | SK-LU-1 | 0.418 | 0.42 | 0.356 | 0.266 | 0.796 | 1.02 | 0.886 | 0.405 | 0.991 | 1.16 | 0.882 | 0.819 | 0.674 | 1 | 1.21 | 1.07 | 1.21 | 0.795
19 | SK-MES-1 | 0.345 | 0.343 | 0.372 | 0.223 | 1.26 | 1.18 | 1.05 | 0.821 | 1.07 | 0.944 | 0.909 | 0.974 | 0.78 | 1.01 | 1.02 | 1.06 | 1.04 | 0.969
20 | SW 1573 | 0.342 | 0.44 | 0.421 | 0.36 | 0.961 | 1.15 | 1.05 | 0.765 | 0.686 | 0.674 | 0.686 | 0.607 | 0.591 | 0.725 | 0.637 | 0.745 | 0.656 | 0.534
